Experiments:
human platelets = test: Viability (MTS) of human platelets; assay type: cell-based; conditions: Supplementary Fig. 12b
Description: For the viability assays in human platelets, human platelet-rich plasma (PRP) was purchased from Zenbio (cat. no. SER-PRP-SDS). PRP was used for experiments immediately after delivery. PRP was transferred into 50-ml polypropylene tubes, each containing 5 ml acid citrate buffer (cat. no. sc-214744, Santa Cruz Biotechnology). […] After gently mixing the solution, platelets were pelleted by centrifugation at 1200 × g for 10 min. Pelleted platelets were gently washed without disruption in 2 ml HEPES-buffered Tyrode’s solution (10 mM HEPES, 135 mM NaCl, 2.8 mM KCl, 1 mM MgCl2, 2 mM CaCl2, 12 mM NaHCO3, 0.4 mM NaH2PO4, 0.25% BSA and 5.5 mM glucose, pH 7.4; cat. no. PY-921WB, Boston BioProducts) containing 1 µM PGE1 and 0.2 units ml^–1 apyrase. After washing, pellets were slowly resuspended in 10 ml HEPES-buffered Tyrode’s solution containing 1 µM PGE1 and 0.2 units ml–1 apyrase. The number of platelets was counted using a HEMAVET 950FS hematology analyzer (Drew Scientific, Inc.). For viability assays, platelet number was adjusted to 2 × 10^8 per ml in HEPES-buffered Tyrode’s solution containing 1 µM PGE1, 0.2 units ml^–1 apyrase and 10% FBS. […] After 72 h treatment, 200 µl of untreated or treated platelets were plated in each well of 96-well plates, and the viability was measured by MTS assay as described above.

BCL-xL = target: T1, BCL-xL (Homo sapiens, UniProt Q07817); test: BCL-xL degradation by western blot in human platelets; assay type: cell-based; conditions: Supplementary Fig. 12a
T1 construct: endogenous in cells
T1 sequence (Q07817 whole entry): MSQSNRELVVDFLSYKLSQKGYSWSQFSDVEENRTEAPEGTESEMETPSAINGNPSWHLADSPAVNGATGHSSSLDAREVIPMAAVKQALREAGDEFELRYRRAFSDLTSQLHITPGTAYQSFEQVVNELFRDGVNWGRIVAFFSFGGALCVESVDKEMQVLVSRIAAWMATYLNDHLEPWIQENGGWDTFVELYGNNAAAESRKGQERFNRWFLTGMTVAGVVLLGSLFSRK
Description: Cells were collected, washed once with ice-cold phosphate-buffered saline, pH 7.2 (PBS, cat. no. 20012027; Thermo Fisher Scientific) and lysed in RIPA lysis buffer (Cat. No. BP-115DG, Boston Bio Products, Ashland, MA, USA) supplemented with protease and phosphatase inhibitor cocktails (Cat. No. PPC1010, Sigma-Aldrich, St. Louis, MO, USA) through sonication. The samples were centrifuged at 14,000 r.p.m. for 5 min and the supernatants were transferred into a new tube. The protein concentration in the supernatants was determined using the Pierce BCA protein Assay kit (cat. no. 23225, Thermo Fisher Scientific). The protein concentration was normalized, and the samples were reduced in 4× Laemmli’s SDS-sample buffer (cat. no. BP-110R, Boston Bio Products) and denatured at 95 °C for 5 min. […] Following sufficient washing with TBST, the membranes were exposed with chemiluminescent HRP substrate (cat. no. WBKLS0500, MilliporeSigma), and the signal was detected using the ChemiDoc MP Imaging System (Bio-Rad) and quantified using the ImageJ (v1.53a) software from NIH. […]

Cc1ncsc1-c1ccc([C@H](C)NC(=O)[C@@H]2C[C@@H](O)CN2C(=O)[C@@H](NC(=O)CCCCCCC(=O)N2CCN(C[C@]3(C)CCC(c4ccc(Cl)cc4)=C(CN4CCN(c5ccc(C(=O)NS(=O)(=O)c6ccc(N[C@H](CCN7CCOCC7)CSc7ccccc7)c(S(=O)(=O)C(F)(F)F)c6)cc5)CC4)C3)CC2)C(C)(C)C)cc1 [753b]
toxicity to platelets relative to ABT263 (human platelets): about three-fold less toxic to platelets than ABT263 | BCL-xL degradation in human platelets (in words) (BCL-xL): failed to induce BCL-xL degradation in human platelets
